ChEMBL document CHEMBL3112491, “3-(5-)-Amino-o-diarylisoxazoles: regioselective synthesis and antitubulin activity” (2014)

Tests used:
Format in all cases: functional
[1] = Growth inhibition of human Hs 578T cells after 48 hrs by sulforhodamine B assay
SF-295 = assay: Growth inhibition of human SF295 cells after 48 hrs by sulforhodamine B assay; conditions: SF-295, 48 h
A498 = assay: Growth inhibition of human A498 cells after 48 hrs by sulforhodamine B assay; conditions: A498, 48 h
HOP-62 = assay: Growth inhibition of human HOP62 cells after 48 hrs by sulforhodamine B assay; conditions: HOP-62, 48 h
SR = assay: Growth inhibition of human SR cells after 48 hrs by sulforhodamine B assay
[2] = Growth inhibition of human HCC2998 cells after 48 hrs by sulforhodamine B assay; conditions: HCC 2998, 48 h
HCT-15 = assay: Growth inhibition of human HCT15 cells after 48 hrs by sulforhodamine B assay; conditions: HCT-15, 48 h
NCI-H322M = assay: Growth inhibition of human NCI-H322M cells after 48 hrs by sulforhodamine B assay
[3] = Growth inhibition of human RXF393 cells after 48 hrs by sulforhodamine B assay; conditions: RXF 393, 48 h
T47D = assay: Growth inhibition of human T47D cells after 48 hrs by sulforhodamine B assay
HL-60(TB) = assay: Growth inhibition of human HL-60(TB) cells after 48 hrs by sulforhodamine B assay; conditions: HL-60, 48 h
[4] = Growth inhibition of human HOP92 cells after 48 hrs by sulforhodamine B assay; conditions: HOP-92, 48 h
NCI-H522 = assay: Growth inhibition of human NCI-H522 cells after 48 hrs by sulforhodamine B assay; conditions: NCI-H522, 48 h
Paracentrotus lividus [5] = assay: Microtubule destabilizing activity in sea urchin free-swimming blastula assessed as embryo spinning treated at 9 to 10 hrs post-fertilization measured after 0.15 to 15 hrs
MCF7 = assay: Growth inhibition of human MCF7 cells after 48 hrs by sulforhodamine B assay; conditions: MCF7, 48 h
A549 = assay: Growth inhibition of human A549/ATCC cells after 48 hrs by sulforhodamine B assay; conditions: A549, 48 h
SN12C = assay: Growth inhibition of human SN12C cells after 48 hrs by sulforhodamine B assay
M14 = assay: Growth inhibition of human M14 cells after 48 hrs by sulforhodamine B assay; conditions: M14, 48 h
[6] = Growth inhibition of human UACC257 cells after 48 hrs by sulforhodamine B assay; conditions: UACC-257, 48 h
MDA-MB-468 = assay: Growth inhibition of human MDA-MB-468 cells after 48 hrs by sulforhodamine B assay; conditions: MDA-MB-468, 48 h
[7] = Growth inhibition of human OVCAR4 cells after 48 hrs by sulforhodamine B assay; conditions: OVCAR-4, 48 h
BT-549 = assay: Growth inhibition of human BT549 cells after 48 hrs by sulforhodamine B assay; conditions: BT-549, 48 h
786-0 = assay: Growth inhibition of human 786-0 cells after 48 hrs by sulforhodamine B assay; conditions: 786-0, 48 h
OVCAR-3 = assay: Growth inhibition of human OVCAR3 cells after 48 hrs by sulforhodamine B assay; conditions: OVCAR-3, 48 h
[8] = Growth inhibition of human NCI-ADR-RES cells after 48 hrs by sulforhodamine B assay
[9] = Growth inhibition of human SF539 cells after 48 hrs by sulforhodamine B assay; conditions: SF-539, 48 h
ACHN = assay: Growth inhibition of human ACHN cells after 48 hrs by sulforhodamine B assay
SW-620 = assay: Growth inhibition of human SW620 cells after 48 hrs by sulforhodamine B assay; conditions: SW-620, 48 h
SK-MEL-28 = assay: Growth inhibition of human SK-MEL-28 cells after 48 hrs by sulforhodamine B assay; conditions: SK-MEL-28, 48 h
Paracentrotus lividus [10] = assay: Antimitotic activity in sea urchin fertilized egg assessed as cleavage arrest treated at 8 to 20 mins post-fertilization measured at 2.5 to 5.5 hrs post-fertilization
NCI-H23 = assay: Growth inhibition of human NCI-H23 cells after 48 hrs by sulforhodamine B assay; conditions: NCI-H23, 48 h
SNB-75 = assay: Growth inhibition of human SNB75 cells after 48 hrs by sulforhodamine B assay; conditions: SNB-75, 48 h
LOX IMVI = assay: Growth inhibition of human LOXIMVI cells after 48 hrs by sulforhodamine B assay
SNB-19 = assay: Growth inhibition of human SNB19 cells after 48 hrs by sulforhodamine B assay; conditions: SNB-19, 48 h
MOLT-4 = assay: Growth inhibition of human MOLT4 cells after 48 hrs by sulforhodamine B assay; conditions: MOLT-4, 48 h
NCI-H226 = assay: Growth inhibition of human NCI-H226 cells after 48 hrs by sulforhodamine B assay; conditions: NCI-H226, 48 h
SK-MEL-5 = assay: Growth inhibition of human SK-MEL-5 cells after 48 hrs by sulforhodamine B assay; conditions: SK-MEL-5, 48 h
COLO 205 = assay: Growth inhibition of human COLO205 cells after 48 hrs by sulforhodamine B assay; conditions: COLO 205, 48 h
KM12 = assay: Growth inhibition of human KM12 cells after 48 hrs by sulforhodamine B assay; conditions: KM12, 48 h
SK-MEL-2 = assay: Growth inhibition of human SK-MEL-2 cells after 48 hrs by sulforhodamine B assay; conditions: SK-MEL-2, 48 h
SF-268 = assay: Growth inhibition of human SF268 cells after 48 hrs by sulforhodamine B assay; conditions: SF-268, 48 h
HCT-116 = assay: Growth inhibition of human HCT116 cells after 48 hrs by sulforhodamine B assay; conditions: HCT-116, 48 h
[11] = Growth inhibition of human EKVX cells after 48 hrs by sulforhodamine B assay
MDA-MB-435 = assay: Growth inhibition of human MDA-MB-435 cells after 48 hrs by sulforhodamine B assay; conditions: MDA-MB-435, 48 h
U-251 = assay: Growth inhibition of human U251 cells after 48 hrs by sulforhodamine B assay; conditions: U-251, 48 h
Paracentrotus lividus [12] = assay: Antimitotic activity in sea urchin fertilized egg assessed as cleavage alteration treated at 8 to 20 mins post-fertilization measured at 2.5 to 5.5 hrs post-fertilization
UACC-62 = assay: Growth inhibition of human UACC62 cells after 48 hrs by sulforhodamine B assay; conditions: UACC-62, 48 h
IGROV-1 = assay: Growth inhibition of human IGROV1 cells after 48 hrs by sulforhodamine B assay; conditions: IGROV-1, 48 h
SK-OV-3 = assay: Growth inhibition of human SKOV3 cells after 48 hrs by sulforhodamine B assay; conditions: SK-OV-3, 48 h
MDA-MB-231 = assay: Growth inhibition of human MDA-MB-231 cells after 48 hrs by sulforhodamine B assay; conditions: MDA-MB-231, 48 h
DU-145 = assay: Growth inhibition of human DU145 cells after 48 hrs by sulforhodamine B assay; conditions: DU-145, 48 h
NCI-H460 = assay: Growth inhibition of human NCI-H460 cells after 48 hrs by sulforhodamine B assay; conditions: NCI-H460, 48 h
[13] = Growth inhibition of human UO31 cells after 48 hrs by sulforhodamine B assay; conditions: UO-31, 48 h
TK-10 = assay: Growth inhibition of human TK10 cells after 48 hrs by sulforhodamine B assay; conditions: TK-10, 48 h
OVCAR-8 = assay: Growth inhibition of human OVCAR8 cells after 48 hrs by sulforhodamine B assay; conditions: OVCAR-8, 48 h
PC-3 = assay: Growth inhibition of human PC3 cells after 48 hrs by sulforhodamine B assay; conditions: PC-3, 48 h
HT-29 = assay: Growth inhibition of human HT-29 cells after 48 hrs by sulforhodamine B assay; conditions: HT-29, 48 h
[14] = Growth inhibition of human OVCAR5 cells after 48 hrs by sulforhodamine B assay; conditions: OVCAR-5, 48 h
CCRF-CEM = assay: Growth inhibition of human CCRF-CEM cells after 48 hrs by sulforhodamine B assay
RPMI-8226 = assay: Growth inhibition of human RPMI8226 cells after 48 hrs by sulforhodamine B assay; conditions: RPMI-8226, 48 h

COc1ccc(-c2c(-c3cc4c(c(OC)c3OC)OCO4)noc2N)cc1
GI50 [1]: 438 nM
GI50 (SF-295): 274 nM
GI50 (A498): 374 nM
GI50 (HOP-62): 551 nM
GI50 (SR): 35.9 nM
GI50 [2]: 524 nM
GI50 (HCT-15): 352 nM
GI50 (NCI-H322M): 625 nM
GI50 [3]: 335 nM
GI50 (T47D): 568 nM
GI50 (HL-60(TB)): 189 nM
GI50 [4]: 837 nM
GI50 (NCI-H522): 65.5 nM
EC (Paracentrotus lividus [5]): 2 µM
GI50 (MCF7): 280 nM
GI50 (A549): 523 nM
GI50 (SN12C): 818 nM
GI50 (M14): 244 nM
GI50 [6]: 458 nM
GI50 (MDA-MB-468): 138 nM
GI50 [7]: 927 nM
GI50 (BT-549): 848 nM
GI50 (786-0): 578 nM
GI50 (OVCAR-3): 184 nM
GI50 [8]: 126 nM
GI50 [9]: 285 nM
GI50 (ACHN): 831 nM
GI50 (SW-620): 210 nM
GI50 (SK-MEL-28): 497 nM
EC (Paracentrotus lividus [10]): 0.2 µM
GI50 (NCI-H23): 391 nM
GI50 (SNB-75): 138 nM
GI50 (LOX IMVI): 523 nM
GI50 (SNB-19): 672 nM
GI50 (MOLT-4): 674 nM
GI50 (NCI-H226): 855 nM
GI50 (SK-MEL-5): 238 nM
GI50 (COLO 205): 272 nM
GI50 (KM12): 112 nM
GI50 (SK-MEL-2): 362 nM
GI50 (SF-268): 641 nM
GI50 (HCT-116): 314 nM
GI50 [11]: 23600 nM
GI50 (MDA-MB-435): 29.2 nM
GI50 (U-251): 359 nM
EC (Paracentrotus lividus [12]): 0.02 µM
GI50 (UACC-62): 513 nM
GI50 (IGROV-1): 683 nM
GI50 (SK-OV-3): 338 nM
GI50 (MDA-MB-231): 983 nM
GI50 (DU-145): 487 nM
GI50 (NCI-H460): 364 nM
GI50 [13]: 669 nM
GI50 (TK-10): 202 nM
GI50 (OVCAR-8): 448 nM
GI50 (PC-3): 300 nM
GI50 (HT-29): 262 nM
GI50 [14]: 2100 nM

COc1ccc(/C=C\c2cc(OC)c(OC)c(OC)c2)cc1O [COMBRETASTATIN A4]
GI50 (SF-295): 3.87 nM
GI50 (A498): 6.11 nM
GI50 (HOP-62): 2.65 nM
GI50 (CCRF-CEM): 2.62 nM
GI50 (SR): 2.99 nM
GI50 [2]: 63.4 nM
GI50 (HCT-15): 3.66 nM
GI50 (NCI-H322M): 7.45 nM
GI50 [3]: 2.37 nM
GI50 (HL-60(TB)): 2.16 nM
GI50 [4]: 2.73 nM
GI50 (NCI-H522): 2.18 nM
EC (Paracentrotus lividus [5]): 0.05 µM
GI50 (SN12C): 5.98 nM
GI50 (786-0): 100 nM
GI50 (RPMI-8226): 3.42 nM
GI50 (OVCAR-3): 2.1 nM
GI50 [8]: 1 nM
GI50 [9]: 2.54 nM
GI50 (ACHN): 6.14 nM
GI50 (SW-620): 3.04 nM
GI50 (SK-MEL-28): 8.07 nM
EC (Paracentrotus lividus [10]): 0.01 µM
GI50 (LOX IMVI): 3.25 nM
GI50 (SNB-19): 3.85 nM
GI50 (MOLT-4): 3.27 nM
GI50 (NCI-H226): 3.81 nM
GI50 (COLO 205): 100 nM
GI50 (KM12): 4.99 nM
GI50 (SK-MEL-2): 4.37 nM
GI50 (SF-268): 5.7 nM
GI50 (HCT-116): 3.28 nM
GI50 [11]: 85.7 nM
GI50 (U-251): 4.03 nM
EC (Paracentrotus lividus [12]): 0.002 µM
GI50 (UACC-62): 5.51 nM
GI50 (IGROV-1): 14.6 nM
GI50 (SK-OV-3): 58.9 nM
GI50 (NCI-H460): 3.11 nM
GI50 (TK-10): 100 nM
GI50 (OVCAR-8): 2.99 nM
GI50 (HT-29): 100 nM
GI50 [14]: 100 nM
